Test results reported in patent publication US11759477B2, “Compositions of nitrates and methods of use thereof” (Heartbeet Ltd., priority 2007, dated 2023).

Legend:
[1] = Oral Glucose Tolerance Test after three-day sodium nitrate supplementation (n=8); format: in vivo, human; conditions: 75 g glucose, 0.1 mmol/kg body weight/day for three days
Experimental: FIG. 8 is a graph showing changes in blood glucose levels after an oral challenge with glucose in 8 additional subjects in a double-blind, placebo-controlled cross-over study. A standard oral glucose tolerance test was performed. The subjects (healthy non-smoking volunteers) had their diet supplemented for 3 days with either sodium chloride (PLACEBO) or sodium nitrate (NITRATE) at a dose of 0.1 mmol/kg/day. Data are presented as mean±SEM.
The lower increase in plasma glucose after nitrate pre-treatment was verified in a further study wherein a standard Oral Glucos Tolerance Test (75 g glucose) was performed in 8 healthy non-smoking subjects after a three-day supplementation with either sodium chloride or sodium nitrate at equal molar amounts (0.1 mmol/kg body weight/day). […] Blood glucose levels were measured at two time points before (−10 and 0 min) and at 15, 30, 45, 60, 75, 90, 105 and 120 min after glucose intake (n=8). At the occasion when the subjects had taken nitrate, the area under the curve for blood glucose was smaller compared to when they had ingested placebo.

[2] = Plasma nitrite after intraperitoneal nitrate in wild type, germ free and eNOS knockout mice; format: in vivo; conditions: 10 mg/kg ip, 1 hour later
Experimental: Three different strains of mice—wild type (n=5 placebo, n=5 nitrate), germ free (n=5 placebo, n=5 nitrate) and eNOS knockout mice (n=2 placebo, n=3 nitrate), were given an intra peritoneal injection of 10 mg/kg body weight nitrate or placebo (NaCl) and plasma level of nitrite measured 1 hour later.

[3] = format: in vivo, human
[4] = Post-ischemic abdominal aortic blood flow after nitrate infusion; format: in vivo; conditions: rats, 10 mg/kg iv bolus + 3 mg/kg/h
Experimental: Rats received an intravenous bolus dose of 10 mg/kg nitrate (NaNO3, n=4) or placebo (NaCl, n=4)) diluted in PBS (pH 7.4) followed by continuous infusion of 3 mg/kg body weight/h. An hour after the addition of nitrate (open boxes) or placebo (filled circles), L-NAME (50 mg/kg) was given, and 10 minutes later, a supra renal clamping of the abdominal aorta was performed. After 30 minutes of ischemia the clamp was removed and the abdominal aortic blood flow was monitored during 60 minutes.

[5] = Oral Glucose Tolerance Test after nitrate pre-treatment (n=3); format: in vivo, human; conditions: 75 g glucose, 60 min after nitrate 1 mmol/kg body weight NaNO3, n=3; placebo 8.2
Experimental: FIGS. 7a-7c consist of three graphs, showing changes in blood glucose levels after an oral challenge with glucose for three test subjects in a double-blind, placebo-controlled cross-over study (FIGS. 7a, 7b and 7c). A standard oral glucose tolerance test was performed. The subjects (healthy non-smoking volunteers) had their diet supplemented for 3 days with either sodium chloride (placebo) or sodium nitrate (Nitrate) at a dose of 0.1 mmol/kg body weight/day.
The increase in plasma glucose after a standard Oral Glucose Tolerance Test (75 g glucose in 250 ml water) is lower when measured after nitrate pre-treatment (1 mmol/kg body weight NaNO3) compared to placebo (NaCl). The study was performed with three healthy test subjects in a double-blind study. Glucose ingestion started 60 min after the nitrate ingestion. Blood glucose levels were measured during the 120 min period after the glucose load (n=3). At 30 min mean plasma glucose was 8.2 mmol/l with placebo and in the same subjects 6.5 mmol/l after nitrate supplementation.

[6] = not given; remark: listed apart in the source
[7] = Blood pressure at rest after dietary sodium nitrate supplementation; format: in vivo, human; conditions: 0.1 mmol/kg body weight/day oral, 3 days, mean±SD, n=9
Experimental: Subjects: Nine healthy, well trained (VO2peak 55±3.7 ml×kg-1×min-1), males (28±6 years) volunteered for the study. All subjects were trained cyclists or triathletes and well accustomed to the testing procedure. It was chosen to use well-trained subjects to avoid training effects from the tests such as enhanced VO2peak or better mechanical efficiency during submaximal exercise. The protocol was approved by the regional ethics committee in Stockholm and all subjects gave their written consent prior to participation.
Dietary supplementation with nitrate: The aim with the present study was to investigate the effects of two distinct dietary patterns, one with higher, and one with lower than normal nitrate intake. […] During two three-day periods, separated by a washout interval of ten days, the subjects were instructed to avoid all foods with moderate or high nitrate content (all vegetables, all cured meats, strawberries, grapes, and tea). In addition, they were told to restrain from alcohol and tobacco products. Otherwise they were free to eat any food they liked during the three days of restricted diet. The subjects were randomized to start with either ingestion of 0.1 mmol sodium nitrate/kg body weight/day dissolved in water or an equal amount of sodium chloride (placebo). The daily dose was divided and ingested three times daily. The different solutions could not be distinguished by taste or appearance. The daily nitrate dose corresponded to the amount normally found in 150-250 gram of a nitrate-rich vegetable such as spinach, lettuce or beetroot. The last dose of nitrate or placebo was ingested in the morning on the day of measurement (see the main tests below). The order between the nitrate supplementation period (NIT) and the placebo period (CON) was balanced.
The main tests: The subjects refrained from heavy exercise three days prior to the main tests and avoided all exercise the day before the tests. They were also told to eat their last light meal at least 3 hours before the start of the tests. […]

[8] = remark: listed apart in the source
Experimental: FIG. 2 is a graph showing changes in oxygen consumption (VO2) following iv infusion of sodium nitrite in increasing doses. Nitrite was infused over a 10 min period in non-smoking healthy male volunteers (30-70 years).
The present inventors have been studying the effects of nitrate and nitrite on various physiological functions including blood pressure, glucose metabolism and energy expenditure in vivo. In the examples below, unless otherwise noted, nitrate was administered perorally and nitrite was administered intravenously (iv). Oxygen consumption was measured using indirect calorimetry.
(§1) Prior to the test the subjects had been on a diet low in nitrate for one day and had been fasting for at least 8 h.

clinical = experiment: clinical
Experimental: as §1

[9] = anesthetized rats, 10 mg/kg bolus NaNO3

O=[N+]([O-])[O-].[Na+] [sodium nitrate]
Concentration of plasma nitrate after infusion [9]: increases dramatically
Plasma nitrite concentrations after infusion [9]: increased
Increase in plasma nitrite, nitrate only vs nitrate+allopurinol (rats, p<0.05): significantly greater
Area under the curve for blood glucose, vs placebo [1]: smaller
Nitrate-induced increase in plasma nitrite across wild type, germ free and eNOS knockout mice [2]: equal
Average lowering of VO2 vs CON over the 4 submaximal work rates ([3]; 45-80% VO2peak): 0.15 L/min
VE, VE/VO2 or respiratory exchange ratio (RER), NIT vs CON ([3]; any of the submaximal work rates): No significant differences
Rating of perceived exertion (Borg RPE-scale), NIT vs CON ([3]; any work load (submax or max)): no difference
Gross efficiency (GE) ([3]; average, p=0.02 vs CON): 21.1%
Delta efficiency (DE) ([3]; four lowest work rates, linear regression, p=0.04 vs CON): 22.9±1.9%
[Hla] (plasma lactate), NIT vs CON ([3]; in vivo): No significant differences
VO2peak ([3]; maximal work, no significant difference, p=0.29): 4.49 ± 0.44 L/min
Maximal work rate ([3]; maximal work, p=0.35): 360.6±32.8 watt
VEmax ([3]; maximal work, p=0.5): 182 ± 21.4 L/min
HRmax ([3]; maximal work, p=0.94): 189.8±7.0 beats×min-1
Heart rate (HR), NIT vs CON ([3]; submaximal work): no difference
VO2 during the four work rates corresponding to 45-80% VO2peak, vs placebo period ([3]; submaximal work): significantly lower
VO2 at 80% of VO2peak ([3]; submaximal work, 0.1 mmol/kg/day oral, 3 days, p=0.003 vs CON): 3.44 ± 0.31 L/min
Oxygen pulse ([3]; submaximal work, p=0.08 vs CON): 20.3±1.9 ml×beat-1
Post-ischemic blood flow in early (0-10 minutes) and late (10-60 minutes) phase, vs placebo [4]: higher blood flow
Abdominal aortic blood flow after 60 min of reperfusion ([4]; L-NAME, 30 min ischemia, control rats 20% of pre-ischemic values): ~75 % of control values
Mean plasma glucose at 30 min [5]: 6.5 mmol/L
Plasma nitrate levels immediately after the maximal work test ([6]; 0.1 mmol/kg/day oral, 3 days, after maximal work test): 175 ± 61 µM
Plasma levels of nitrate at rest ([6]; 0.1 mmol/kg/day oral, 3 days, at rest): 182000 ± 55000 nM
Decrease in nitrite concentrations during exercise, vs CON ([6]; compared with placebo period): more pronounced
Plasma nitrite levels at rest ([6]; in vivo, po): 226 ± 87 nM
Plasma nitrite levels immediately after the maximal work test ([6]; in vivo, po): 137 ± 48 nM
Increase in c-GMP concentrations after the maximal work as compared to rest, vs CON ([6]; p=0.08): tended to be higher
Change of plasma nitrate during exercise ([6]; p=0.8): did not change
Average resting systolic blood pressure [7]: 112±8 mmHg
Resting diastolic blood pressure [7]: 68±5.5 mmHg
Average resting systolic blood pressure ([7]; listed as NIT): 120+/−5.9 mmHg

O=NO [sodium nitrite]
Reduction of resting energy expenditure ([8]; after 10 min of iv infusion, n=4, major drop at 10 nmoles/kg body weight/min): 10-25%
Effect on energy expenditure / oxygen consumption ([8]; iv 1 nmol/kg body weight/min, 10 min observation period): no obvious effects
Oxygen consumption compared to the 10 nmol dose ([8]; iv 100 nmol/kg body weight/min): no further decrease in oxygen consumption
Methemoglobin after infusion of nitrite (clinical; basal 1.1-1.3 mmol/l, did not change significantly): 1.1 to 1.4 mmol/L
concentration at 10 min (clinical; human, plasma, iv, 10 nmol/kg body weight/min): 370 to 480 nM
